The test deals with T1, ERR1 (also known as ERR-α or ERR-1) (Homo sapiens, UniProt P11474).
T1 sequence (P11474 193-421 limits assumed): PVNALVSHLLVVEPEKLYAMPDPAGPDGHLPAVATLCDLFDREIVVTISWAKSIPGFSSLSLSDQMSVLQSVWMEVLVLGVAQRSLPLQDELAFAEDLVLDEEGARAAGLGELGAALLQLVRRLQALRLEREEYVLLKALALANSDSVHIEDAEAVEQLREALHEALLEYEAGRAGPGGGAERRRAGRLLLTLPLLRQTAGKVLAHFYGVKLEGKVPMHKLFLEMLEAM
In words: TR-FRET assay (disruption of co-activator peptide binding). The class given is biochemical. As to conditions: 6His-tagged ERR1LBD, GST-hSRC2 co-activator peptide; average of 3 independent experiments. How it is done:
Time-Resolved Fluorescence Resonance Energy Transfer (TR-FRET) experiments were performed to examine the functional response of ERR1 (also known as ERR-α or ERR-1) ligands. The TR-FRET assay described herein relied on the conformation of ERR1 for binding to a co-activator peptide: when a test compound binds to ERR1 and alters its conformation, it can disrupt the binding of the co-activator peptide. The components of this homogeneous secondary assay included: the ^6His-tagged-ERR1LBD, a GST-labeled-hSRC2 co-activator polypeptide and a fluorescent donor/acceptor pair from CIS bio international htrf/bioassays (Bedford, Mass.) using both an α-GST Europium Cryptate (Eu) label and an α^6His-XL665 (allophycocyanin) fluorophore.
For TR-FRET measurements, the reaction was buffered in 25 mM Tris pH 8, 2.5 mM Hepes, 20 mM KCl, 1 mM DTT, and 0.05 mg/mL BSA (-lipids). The final concentrations of reagents were 6 nM of ERR1LBD, 6 nM GST-SRC-2 peptide, 30 nM Eu cryptate, and 7.5 nM XL665. Reactions were allowed to reach equilibrium at 25° C. for 4-18 hours before collecting data on the Analyst from LJL Biosystems (Molecular Devices Sunnyvale, Calif.). As a time-resolved method, the samples were excited at […] and emission was collected for 1 ms at both 615 and 665 nm with delays of 400 and 75 μs, respectively. Dose response curves were fitted using a hyperbolic equation and the data reported is the average of 3 independent experiments.
With `CN(CCN1CCOCC1)C1=NC(=O)/C(=C/c2ccc3c(cnn3Cc3ccc(C(F)(F)F)cc3C(F)(F)F)c2)S1` [Compound 27, 5-[1-(2,4-Bis-trifluoromethyl-benzyl)-1H-indazol-5-ylmethylene]-2-[methyl-(2-morpholin-4-yl-ethyl)-amino]-thiazol-4-one], it took 21 nM to reach a half-maximal effect (EC50).
As to `CN(C1=NC(=O)/C(=C/c2ccc3c(cnn3Cc3ccc(C(F)(F)F)cc3C(F)(F)F)c2)S1)C1CCNC1` (stereo not drawn) [Compound 28, 5-[1-(2,4-Bis-trifluoromethyl-benzyl)-1H-indazol-5-ylmethylene]-2-(methyl-pyrrolidin-3-yl-amino)-thiazol-4-one], the EC50 came to 30 nM.
The value for `CN1CCC(N(C)C2=NC(=O)/C(=C/c3ccc4c(cnn4Cc4ccc(C(F)(F)F)cc4C(F)(F)F)c3)S2)C1` (stereo not drawn) [Compound 29, 5-[1-(2,4-Bis-trifluoromethyl-benzyl)-1H-indazol-5-ylmethylene]-2-[methyl-(1-methyl-pyrrolidin-3-yl)-amino]-thiazol-4-one] was 67 nM.
Compound `CN(CCO)C1=NC(=O)/C(=C/c2ccc3c(cnn3Cc3ccc(Cl)cc3C(F)(F)F)c2)S1` [Compound 30, 5-[1-(4-Chloro-2-trifluoromethyl-benzyl)-1H-indazol-5-ylmethylene]-2-[(2-hydroxy-ethyl)-methyl-amino]-thiazol-4-one] came in with an EC50 of 12 nM.
The value for `CN(C[C@H](O)c1ccc(O)cc1)C1=NC(=O)/C(=C/c2ccc3c(cnn3Cc3ccc(Cl)cc3C(F)(F)F)c2)S1` [Compound 31, (R)-5-[1-(4-Chloro-2-trifluoromethyl-benzyl)-1H-indazol-5-ylmethylene]-2-{[2-hydroxy-2-(4-hydroxy-phenyl)-ethyl]-methyl-amino}-thiazol-4-one] was 31 nM; that for `CCN(CC)CCN(C)C1=NC(=O)/C(=C/c2ccc3c(cnn3Cc3ccc(Cl)cc3C(F)(F)F)c2)S1` [Compound 32, 5-[1-(4-Chloro-2-trifluoromethyl-benzyl)-1H-indazol-5-ylmethylene]-2-[(2-diethylamino-ethyl)-methyl-amino]-thiazol-4-one] was 15 nM.
The compound `CN(CCCn1cccn1)C1=NC(=O)/C(=C/c2ccc3c(cnn3Cc3ccc(Cl)cc3C(F)(F)F)c2)S1` [Compound 33, 5-[1-(4-Chloro-2-trifluoromethyl-benzyl)-1H-indazol-5-ylmethylene]-2-[methyl-(3-pyrazol-1-yl-propyl)-amino]-thiazol-4-one] returned an EC50 of 13 nM.
With `CN1CCC(CN(C)C2=NC(=O)/C(=C/c3ccc4c(cnn4Cc4ccc(Cl)cc4C(F)(F)F)c3)S2)C1` (stereo not drawn) [Compound 34, 5-[1-(4-Chloro-2-trifluoromethyl-benzyl)-1H-indazol-5-ylmethylene]-2-[methyl-(1-methyl-pyrrolidin-3-ylmethyl)-amino]-thiazol-4-one] the figure was 17 nM.
The value for `CN1CCC(N(C)C2=NC(=O)/C(=C/c3ccc4c(cnn4Cc4ccc(Cl)cc4C(F)(F)F)c3)S2)C1` (stereo not drawn) [Compound 35, 5-[1-(4-Chloro-2-trifluoromethyl-benzyl)-1H-indazol-5-ylmethylene]-2-[methyl-(1-methyl-pyrrolidin-3-yl)-amino]-thiazol-4-one] was 18 nM; that for `CN(CC1(CO)CC1)C1=NC(=O)/C(=C/c2ccc3c(cnn3Cc3ccc(Cl)cc3C(F)(F)F)c2)S1` [Compound 36, 5-[1-(4-Chloro-2-trifluoromethyl-benzyl)-1H-indazol-5-ylmethylene]-2-[(1-hydroxymethyl-cyclopropylmethyl)-methyl-amino]-thiazol-4-one] was 21 nM; that for `CCOC(=O)N1CCC(N(C)C2=NC(=O)/C(=C/c3ccc4c(cnn4Cc4ccc(Cl)cc4C(F)(F)F)c3)S2)CC1` [Compound 37, 4-({5-[1-(4-Chloro-2-trifluoromethyl-benzyl)-1H-indazol-5-ylmethylene]-4-oxo-4,5-dihydro-thiazol-2-yl}-methyl-amino)-piperidine-1-carboxylic acid ethyl ester] was 69 nM.
With `CN(CCC#N)C1=NC(=O)/C(=C/c2ccc3c(cnn3Cc3ccc(Cl)cc3C(F)(F)F)c2)S1` [Compound 38, 3-({5-[1-(4-Chloro-2-trifluoromethyl-benzyl)-1H-indazol-5-ylmethylene]-4-oxo-4,5-dihydro-thiazol-2-yl}-methyl-amino)-propionitrile], the midpoint of the response, the EC50, lay at 26 nM.
With `C=CCN(C)C1=NC(=O)/C(=C/c2ccc3c(cnn3Cc3ccc(Cl)cc3C(F)(F)F)c2)S1` [Compound 39, 2-(Allyl-methyl-amino)-5-[1-(4-chloro-2-trifluoromethyl-benzyl)-1H-indazol-5-ylmethylene]-thiazol-4-one] the figure was 25 nM; with `COC[C@@H]1CC(N(C)C2=NC(=O)/C(=C/c3ccc4c(cnn4Cc4ccc(C(F)(F)F)cc4C(F)(F)F)c3)S2)CN1` (stereo partly drawn) [Compound 40, 5-[1-(2,4-Bis-trifluoromethyl-benzyl)-1H-indazol-5-ylmethylene]-2-[(5-methoxymethyl-pyrrolidin-3-yl)-methyl-amino]-thiazol-4-one], 21 nM; with `CN(C1=NC(=O)/C(=C/c2ccc3c(cnn3Cc3ccc(C(F)(F)F)cc3C(F)(F)F)c2)S1)C1CN[C@H](CO)C1` (stereo partly drawn) [Compound 43, 5-[1-(2,4-Bis-trifluoromethyl-benzyl)-1H-indazol-5-ylmethylene]-2-[(5-hydroxymethyl-pyrrolidin-3-yl)-methyl-amino]-thiazol-4-one], 30 nM.
The value for `COC[C@@H]1CC(N(C)C2=NC(=O)/C(=C/c3ccc4c(cnn4Cc4ccc(C(F)(F)F)cc4C(F)(F)F)c3)S2)CN1C` (stereo partly drawn) [Compound 44, 5-[1-(2,4-Bis-trifluoromethyl-benzyl)-1H-indazol-5-ylmethylene]-2-[(5-methoxymethyl-1-methyl-pyrrolidin-3-yl)-methyl-amino]-thiazol-4-one] was 32 nM.
`CN(CC(O)CN)C1=NC(=O)/C(=C/c2ccc3c(cnn3Cc3ccc(Cl)cc3C(F)(F)F)c2)S1` (stereo not drawn) [Compound 45, 2-[(3-Amino-2-hydroxy-propyl)-methyl-amino]-5-[1-(4-chloro-2-trifluoromethyl-benzyl)-1H-indazol-5-ylmethylene]-thiazol-4-one] had an EC50 of 120 nM.
`CN(Cc1cccnc1)C1=NC(=O)/C(=C/c2ccc3c(cnn3Cc3ccc(Cl)cc3C(F)(F)F)c2)S1` [Compound 46, 5-[1-(4-Chloro-2-trifluoromethyl-benzyl)-1H-indazol-5-ylmethylene]-2-(methyl-pyridin-3-ylmethyl-amino)-thiazol-4-one] yielded an EC50 of 22 nM.
`COCCN1CCC(CN(C)C2=NC(=O)/C(=C/c3ccc4c(cnn4Cc4ccc(Cl)cc4C(F)(F)F)c3)S2)C1` (stereo not drawn) [Compound 47, 5-[1-(4-Chloro-2-trifluoromethyl-benzyl)-1H-indazol-5-ylmethylene]-2-{[1-(2-methoxy-ethyl)-pyrrolidin-3-ylmethyl]-methyl-amino}-thiazol-4-one] displayed an EC50 of 17 nM.
For the compound `CN(C1=NC(=O)/C(=C/c2ccc3c(cnn3Cc3ccc(Cl)cc3C(F)(F)F)c2)S1)C1CNC1` [Compound 48, 2-(Azetidin-3-yl-methyl-amino)-5-[1-(4-chloro-2-trifluoromethyl-benzyl)-1H-indazol-5-ylmethylene]-thiazol-4-one], the EC50 was 43 nM.
`CNCC(O)CN(C)C1=NC(=O)/C(=C/c2ccc3c(cnn3Cc3ccc(Cl)cc3C(F)(F)F)c2)S1` (stereo not drawn) [Compound 49, 5-[1-(4-Chloro-2-trifluoromethyl-benzyl)-1H-indazol-5-ylmethylene]-2-[(2-hydroxy-3-methylamino-propyl)-methyl-amino]-thiazol-4-one] displayed an EC50 of 41 nM.
Take `CN(CC(O)CN1CCCC1)C1=NC(=O)/C(=C/c2ccc3c(cnn3Cc3ccc(Cl)cc3C(F)(F)F)c2)S1` (stereo not drawn) [Compound 50, 5-[1-(4-Chloro-2-trifluoromethyl-benzyl)-1H-indazol-5-ylmethylene]-2-[(2-hydroxy-3-pyrrolidin-1-yl-propyl)-methyl-amino]-thiazol-4-one]: the EC50 worked out at 23 nM.
With `CCN(CC)CCN(C)C1=NC(=O)/C(=C/c2ccc3c(c2)c(I)nn3Cc2ccc(C(F)(F)F)cc2C(F)(F)F)S1` [Compound 51, 5-[1-(2,4-Bis-trifluoromethyl-benzyl)-3-iodo-1H-indazol-5-ylmethylene]-2-[(2-diethylamino-ethyl)-methyl-amino]-thiazol-4-one] the figure was 11 nM.
With `CC(C(N)=O)N1CCC(N(C)C2=NC(=O)/C(=C/c3ccc4c(cnn4Cc4ccc(C(F)(F)F)cc4C(F)(F)F)c3)S2)CC1` (stereo not drawn) [Compound 53, 2-(4-{[-5-({1-[2,4-Bis(trifluoromethyl)benzyl]-1H-indazol-5-yl}methylidene)-4-oxo-4,5-dihydro-1,3-thiazol-2-yl](methyl)amino}piperidin-1-yl)propionamide] the figure was 24 nM.

The values are drawn from patent publication US8426604B2 (Janssen Pharmaceutica NV, priority 2010, dated 2013).
